The text below walks through data of patent US4717767A, “7-amino-3-(pyrazinylmethyl) or (pyridazinylmethyl)-cephalosporins” (Toyama Chemical Co., Ltd., priority 1982, dated 1988).

Where a name gives a salt, the structure may show the parent alone. Read-outs that look alike come from different tables or passages of the source.

Series [1] is described as follows: Acute toxicity, intravenous, mice. As to conditions: mouse, in vivo, mice (ICR, male, 20-24 g). An excerpt: LD50 values of the following test compounds were 3 g/kg or more when the compounds were intravenously administered to mice (ICR, male, body weight 20-24 g).
For the next series, the system named is Kl. pneumoniae Y-41. In words: Antibacterial activity (MIC), Kl. pneumoniae Y-41. The format is cell-based. As to conditions: Klebsiella pneumoniae, Y41; Heart Infusion agar, 37° C., 20 hours, 10^6 cells/ml. The text has this:
(§1) The amount of the inoculated bacteria was 10^4 cells/plate (10^6 cells/ml).

A further series has as its system Cit. freundii N-7. The experiment in a line: Antibacterial activity (MIC), Cit. freundii N-7. In kind it is cell-based. As to conditions: Citrobacter freundii, N7; Heart Infusion agar, 37° C., 20 hours, 10^6 cells/ml; read-out: MIC.
Description: as §1

In the next series the test system is E. coli TK-3. In words: Antibacterial activity (MIC), E. coli TK-3. In kind it is cell-based. The note with it: Escherichia coli, TK3; penicillinase-producing strain; Heart Infusion agar, 37° C., 20 hours, 10^6 cells/ml; read-out: MIC.
Description: as §1

The test system of a further series is Kl. pneumoniae Y-4. The experiment in a line: Antibacterial activity (MIC), Kl. pneumoniae Y-4. The format is cell-based. As to conditions: Klebsiella pneumoniae, Y4; penicillinase-producing strain; Heart Infusion agar, 37° C., 20 hours, 10^6 cells/ml.
Description: as §1

In a further series the test system is E. coli NIHJ. In words: Antibacterial activity (MIC), E. coli NIHJ. In kind it is cell-based. As to conditions: Escherichia coli; Heart Infusion agar, 37° C., 20 hours, 10^4 cells/plate (10^6 cells/ml).
Description: as §1

In the next series the test system is Pro. mirabilis T-111. In words: Antibacterial activity (MIC), Pro. mirabilis T-111. In kind it is cell-based. As to conditions: Proteus mirabilis, T111; Heart Infusion agar, 37° C., 20 hours, 10^6 cells/ml; read-out: MIC.
Description: as §1

In a further series the test system is Pro. vulgaris GN76. The experiment in a line: Antibacterial activity (MIC), Pro. vulgaris GN76. As to conditions: Proteus vulgaris, cephalosporinase-producing strain, Heart Infusion agar, 37° C., 20 hours, 10^6 cells/ml. In kind it is cell-based.
Description: as §1

A further series has as its system Ps. aeruginosa GN918. In words: Antibacterial activity (MIC), Ps. aeruginosa GN918. The note with it: Pseudomonas aeruginosa, cephalosporinase-producing strain, Heart Infusion agar, 37° C., 20 hours, 10^6 cells/ml. The format is cell-based.
Description: as §1

For a further series, the system named is Kl. pneumoniae Y-50. In words: Antibacterial activity (MIC), Kl. pneumoniae Y-50. In kind it is cell-based. The note with it: Klebsiella pneumoniae, Y50; Heart Infusion agar, 37° C., 20 hours, 10^6 cells/ml.
Description: as §1

The next series concerns Ser. marcescens W-134. The experiment in a line: Antibacterial activity (MIC), Ser. marcescens W-134. In kind it is cell-based. The note with it: Serratia marcescens.
Description: as §1

The test system of the next series is Ser. marcescens IID620. The experiment in a line: Antibacterial activity (MIC), Ser. marcescens IID620. In kind it is cell-based. As to conditions: Serratia marcescens, IID620; Heart Infusion agar, 37° C., 20 hours, 10^6 cells/ml; read-out: MIC.
Description: as §1

A further series concerns Pro. morganii T-216. In words: Antibacterial activity (MIC), Pro. morganii T-216. The format is cell-based. As to conditions: Morganella morganii, T216; Heart Infusion agar, 37° C., 20 hours, 10^6 cells/ml.
Description: as §1

A short description of series [2]: Urinary recovery after oral administration to mice. The format is in vivo, mice (ICR, male). The note with it: urine, 1 mg/mouse in 0.5% CMC, 0-6 hours, 5 mice, mean ± S.E., free carboxylic acid by bioassay with Kl. pneumoniae ATCC 10031. As to the method:
A test compound was orally administered to mice (ICR, male, 4 weeks old) in an amount of 1 mg/mouse, and a urinary recovery was determined.
In the test compounds (No. 1 and No. 2), the ester group is easily removed in a living body, whereby the compounds are converted into the corresponding free carboxylic acids. Therefore, the urinary recovery was determined by quantitatively measuring the free carboxylic acids excreted into urine.
Administration method: A test compound suspended in 0.5% CMC (Carboxy Methyl Cellulose) was orally administered.
Quantitative measurement method: The amount of free carboxylic acid was measured by bioassay (a paper-disc method) using the test organism mentioned in Table 2.

Setting [3] is: W134, Heart Infusion agar, 37° C., 20 hours, 10^6 cells/ml, read-out: MIC.

A word on the LD50: it is the dose at which mortality reaches 50%. In general, MIC refers to the lowest concentration found to suppress growth.

Consider `CO/N=C(\C(=O)NC1C(=O)N2C(C(=O)O)=C(Cn3nc(C)ccc3=O)CSC12)c1csc(N)n1` (centres unmarked), for which, in series [1], the 50% lethal dose (LD50) was no less than 3000 mg/kg.

`CO/N=C(\C(=O)NC1C(=O)N2C(C(=O)O)=C(Cn3ccn(C)c(=O)c3=O)CSC12)c1csc(N)n1` (centres unmarked) yielded a 50% lethal dose (LD50) in series [1] of no less than 3000 mg/kg.

Take `CO/N=C(\C(=O)NC1C(=O)N2C(C(=O)O)=C(Cn3cc[nH]c(=O)c3=O)CSC12)c1csc(N)n1` (stereo not drawn) [A, trifluoroacetic acid salt of 7-[2-(2-aminothiazol-4-yl)-2-(syn)-methoxyiminoacetamido]-3-{[1-(2,3-dioxo-1,2,3,4-tetrahydropyrazinyl)]methyl}-Δ^3-cephem-4-carboxylic acid]: the MIC with Kl. pneumoniae Y-41 is no more than 0.1 µg/mL; with Cit. freundii N-7, 0.39 µg/mL; in the series on E. coli TK-3 it was no more than 0.1 µg/mL; against Kl. pneumoniae Y-4, no more than 0.1 µg/mL; against E. coli NIHJ it was no more than 0.1 µg/mL; in the series on Pro. mirabilis T-111 it was no more than 0.1 µg/mL. Moreover, the MIC in the series on Pro. vulgaris GN76 was no more than 0.1 µg/mL; against Ps. aeruginosa GN918, 12.5 µg/mL; against Kl. pneumoniae Y-50, no more than 0.1 µg/mL; in the series with Ser. marcescens W-134 (setting [3]) it was no more than 0.1 µg/mL; with Ser. marcescens IID620, no more than 0.1 µg/mL; against Pro. morganii T-216 it was no more than 0.1 µg/mL.

The compound `Cc1ccc(=O)n(CC2=C(C(=O)O)N3C(=O)C(NC(=O)/C(=N\OCC(=O)O)c4csc(N)n4)C3SC2)n1` (centres unmarked) [Compound 3] returned a dose excreted at 6 h in series [2] of 10.4 ± 1.1%.

For the compound `CN(C)n1ccn(CC2=C(C(=O)O)N3C(=O)C(NC(=O)/C(=N\OCC(=O)O)c4csc(N)n4)C3SC2)c(=O)c1=O` (stereo not drawn) [I, trifluoroacetic acid salt of 7-[2-(2-aminothiazol-4-yl)-2-(syn)-carboxymethoxyiminoacetamido]-3-{[1-(4-dimethylamino-2,3-dioxo-1,2,3,4-tetrahydropyrazinyl)]methyl}-Δ^3-cephem-4-carboxylic acid], the MIC against Kl. pneumoniae Y-41 is 0.2 µg/mL; in the series with Cit. freundii N-7, 1.56 µg/mL; in the series on E. coli TK-3, no more than 0.1 µg/mL; in the series with Kl. pneumoniae Y-4, 0.39 µg/mL; in the series on E. coli NIHJ it was no more than 0.1 µg/mL; with Pro. mirabilis T-111 it was no more than 0.1 µg/mL. For the same compound, the MIC was no more than 0.1 µg/mL against Pro. vulgaris GN76; 12.5 µg/mL in the series on Ps. aeruginosa GN918; 0.2 µg/mL in the series on Kl. pneumoniae Y-50; no more than 0.1 µg/mL in the series with Ser. marcescens W-134 (W134, 20 h); no more than 0.1 µg/mL in the series with Ser. marcescens IID620; no more than 0.1 µg/mL against Pro. morganii T-216.

Compound `CO/N=C(\C(=O)NC1C(=O)N2C(C(=O)O)=C(Cn3[nH]c(=O)ccc3=O)CSC12)c1csc(N)n1` (centres unmarked) displayed an LD50 in [1] of no less than 3000 mg/kg.

In series [1], `CO/N=C(\C(=O)NC1C(=O)N2C(C(=O)O)=C(Cn3cc[nH]c(=O)c3=O)CSC12)c1csc(N)n1` (centres unmarked) displayed an LD50 of no less than 3000 mg/kg.

On to `CO/N=C(\C(=O)NC1C(=O)N2C(C(=O)O)=C(Cn3ccn(C)c(=O)c3=O)CSC12)c1csc(N)n1` (stereo not drawn) [B, trifluoroacetic acid salt of 7-[2-(2-aminothiazol-4yl)-2-(syn)-methoxyiminoacetamido]-3-{[1-(4-methyl-2,3-dioxo-1,2,3,4-tetrahydropyrazinyl)]methyl}-Δ^3-cephem-4-carboxylic acid], for which the minimal inhibitory concentration (MIC) against Kl. pneumoniae Y-41 is no more than 0.1 µg/mL; with Cit. freundii N-7 it was 1.56 µg/mL; with E. coli TK-3, no more than 0.1 µg/mL; against Kl. pneumoniae Y-4 it was 0.2 µg/mL; against E. coli NIHJ it was no more than 0.1 µg/mL; in the series with Pro. mirabilis T-111, no more than 0.1 µg/mL. For the same compound, the MIC in the series with Pro. vulgaris GN76 is 0.2 µg/mL; in the series on Ps. aeruginosa GN918 it was 25 µg/mL; against Kl. pneumoniae Y-50, no more than 0.1 µg/mL; with Ser. marcescens W-134 (setting [3]) it was no more than 0.1 µg/mL; in the series with Ser. marcescens IID620, no more than 0.1 µg/mL; against Pro. morganii T-216 it was no more than 0.1 µg/mL.

As to `CCn1ccn(CC2=C(C(=O)O)N3C(=O)C(NC(=O)/C(=N\OCC(=O)O)c4csc(N)n4)C3SC2)c(=O)c1=O` (stereo not drawn) [H, trifluoroacetic acid salt of 7-[2-(2-aminothiazol-4-yl)-2-(syn)-carboxymethoxyiminoacetamido]-3-{[1-(4-ethyl-2,3-dioxo-1,2,3,4-tetrahydropyrazinyl)]methyl}-Δ^3-cephem-4-carboxylic acid], the minimum inhibitory concentration (MIC) against Kl. pneumoniae Y-41 was no more than 0.1 µg/mL; in the series on Cit. freundii N-7, 1.56 µg/mL; in the series on E. coli TK-3 it was no more than 0.1 µg/mL; against Kl. pneumoniae Y-4, 0.2 µg/mL; against E. coli NIHJ, no more than 0.1 µg/mL; in the series with Pro. mirabilis T-111, no more than 0.1 µg/mL. Besides, the minimal inhibitory concentration (MIC) with Pro. vulgaris GN76 is no more than 0.1 µg/mL; against Ps. aeruginosa GN918, 6.25 µg/mL; in the series on Kl. pneumoniae Y-50, 0.2 µg/mL; in the series on Ser. marcescens W-134 (setting [3]), no more than 0.1 µg/mL; with Ser. marcescens IID620, no more than 0.1 µg/mL; in the series with Pro. morganii T-216 it was no more than 0.1 µg/mL.
